{
  "source": "patent US20190167629A1",
  "about": "“COMBINATION THERAPY METHODS FOR TREATING PROLIFERATIVE DISEASES” (Abraxis BioScience, LLC, priority 2010, published 2019)",
  "key": {"[1]": {"test_system": "advanced or metastatic solid tumors, including lymphoma", "assay": "Phase I/II study of azacitidine with nanoparticle albumin bound paclitaxel", "type": "in vivo, human", "details": "azacitidine sc days 1-5, then paclitaxel 100 mg/m^2 days 8, 15, 22 of 28-day cycle", "protocol": "Patients with evaluable advanced or metastatic solid tumors, including lymphoma, adequate organ function, PS 0-2, and unlimited prior cytotoxic chemotherapies, including taxanes, were eligible. Cohorts of 3-6 patients were enrolled and treated.\nEscalating doses of azacitidine (75-100 mg/m^2) were administered to patients subcutaneously on days 1-5, followed by a fixed dose of paclitaxel ([…]) on days 8, 15, and 22 of a 28-day cycle, for a total of 6 cycles. Serum and/or tissue samples, where appropriate, were collected for correlative studies.\nPatients were initially permitted to have an unlimited number of prior chemotherapies. […] All affected patients had 4 or more prior cytotoxic regimens. […] Cohort 3 was treated at the next dose level (azacitidine 100 mg/m^2). […] Therefore, the maximum tolerated dose (MTD) of azacitidine in this regimen is 75 mg/m^2. […] To date, 16 patients have enrolled in the phase I part. Two patients were removed before completing cycle 1 because of disease progression. One patient was removed after cycle 4 for noncompliance."}, "[2]": {"test_system": "SPARC", "assay": "SPARC promoter methylation (MSP) and SPARC expression (RT-PCR, Western blot) in NSCLC cell lines in vitro", "type": "cell-based, human", "details": "3 days in vitro", "protocol": "Total RNA was extracted from the samples with Trizol reagent (Invitrogen; Carlsbad, Calif.), and first-strand complementary DNA was generated using SuperScript III First-Strand Synthesis System (Invitrogen). The forward polymerase chain reaction (PCR) amplification primer of SPARC was 5′-[…]-3′ (Ex8-S, SEQ ID NO:1), and the reverse primer was 5-[…]-3′ (Ex9-AS, SEQ ID NO:2). Semiquantitative PCR was carried out for 4 minutes at 95° C. for initial denaturation, followed by 33 cycles of 94° C. for 25 seconds, 56° C. for 25 seconds, and 68° C. for 40 seconds. Glyceraldehyde-3-phosphate dehydrogenase (GAPDH) was used as endogenous control. Quantitative real-time (RT) PCR was done with SYBR GreenER qPCR superMix for ABI PRISM (Invitrogen) using ABI 7300 RT PCR system (Invitrogen), and GAPDH was used as a housekeeping gene for purpose of normalization.\nThe objective of this study was to determine if demethylation of the promoter region of the SPARC gene results in reexpression of the SPARC gene in cancer cells. DNA methylation in gene promoter regions is a mechanism to silence gene expression. The loss of SPARC expression in a large proportion of NSCLC specimens may be due to the methylation in the promoter region of SPARC gene was investigated. Representative samples of NSCLC cell lines or PD xenografts were treated with decitabine (5 μM) in vitro for three days and promoter methylation was analyzed.\nGenomic DNA was obtained from cell lines and primary tumors by using DNeasy Blood and Tissue Kit (Qiagen; Valencia, Calif.) according to the manufacturer's handbook. The DNA methylation pattern in the CpG island of SPARC was determined using the method of methylation-specific PCR (MSP) and with the EZ DNA Methylation Kit (Zymo research, Irvine, Calif.). Primers for the methylated reaction were Sparc-unmsp-F: 5′-[…]-3′ (sense, SEQ ID NO:3), Sparcunmsp-R: 5′-[…]-3′ (antisense, SEQ ID NO:4), sparc-msp-F: 5′-[…]-3′ (sense, SEQ ID NO:5), and sparc-msp-R: 5′-[…]-3′ (antisense, SEQ ID NO:6). PCR amplification was carried out with bisulfite-treated DNA as a template using specific primer sequences for the methylated and unmethylated status of the gene. Water blanks were included with each assay. PCR amplification was carried out for 12 minutes at 94° C. for initial denaturation, followed by 40 cycles of 94° C. for 30 seconds, 58° C. for 25 seconds, and 68° C. for 45 seconds. Results were confirmed by repeating the bisulfate treatment and MSP for all samples. PCR products were visualized on 1.5% agarose gels.\nWestern blot analysis was carried out using standard methods. Polyclonal antihuman SPARC antibody was purchased from R&D System (Minneapolis, Minn.). […] The levels of β-actin (Sigma) were measured as control for equal loading. […]"}, "[3]": {"test_system": "SPARC", "assay": "SPARC expression in NSCLC xenografts in vivo", "design": "species or system SCID mice", "protocol": "Western blot analysis was carried out using standard methods. Polyclonal antihuman SPARC antibody was purchased from R&D System (Minneapolis, Minn.). NSCLC cell lines A549, H460, and H157 were treated with 5 μM decitabine for 3 days in vitro and then harvested for RT-PCR and Western blot analysis. PD NSCLC xenografts and H460 xenografts treated with or without decitabine at 1.5 mg/kg/d. Xenografts were harvested for SPARC expression analysis. GAPDH were used as the endogenous control. Xenograft lysates were prepared and subjected to immunoblot analysis using 50 μg of cellular protein as described previously (Yu, C. et al. Blood 2003 102:3765-3774). The levels of β-actin (Sigma) were measured as control for equal loading. Immunoblots were developed with enhanced chemiluminescence (Amersham Bioscience, Golden Valley, Minn.).\nTo establish a maximally tolerated dose to be used in experiments involving pretreatment with decitabine, groups of mice implanted with H460 cell lines were tested at four dose levels of decitabine, i.e., 0.75, 1.5, 2, and 4 mg/kg, administered intraperitoneally as a single dose and monitored for viability (weight loss and death). Two mice from each group were killed 48 hours after completing decitabine treatment alone and tumor xenografts harvested to affirm SPARC-expression status. […]"}, "[4]": {"test_system": "mice implanted with H460 cell lines", "assay": "Tolerable dose of decitabine, viability (weight loss and death)", "type": "in vivo, SCID mice", "protocol": "To establish a maximally tolerated dose to be used in experiments involving pretreatment with decitabine, groups of mice implanted with H460 cell lines were tested at four dose levels of decitabine, i.e., 0.75, 1.5, 2, and 4 mg/kg, administered intraperitoneally as a single dose and monitored for viability (weight loss and death). Two mice from each group were killed 48 hours after completing decitabine treatment alone and tumor xenografts harvested to affirm SPARC-expression status. For combination drug treatment, Abraxane® was administered by tail vein injection at 30 mg/kg/d for 5 consecutive days. Taxol and decitabine were used at 13.4 mg/kg/d and 1.5 mg/kg/d, respectively. […] At the end of drug treatment, the mice were killed. Xenografts were harvested and assayed to determine SPARC status.\nThe study evaluates tumor SPARC expression upregulation on treatment with decitabine in vitro and in vivo. To establish a tolerable dose to be used in experiments in vivo, groups of mice implanted with H460 cell lines were tested at four dose levels of decitabine, i.e., 0.75, 1.5, 2, and 4 mg/kg, respectively. This is based on prior publication showing that decitabine administered twice daily intraperitoneally for 5 days was toxic at 10 mg/kg/dose, and 2 mg/kg dose was associated with mild toxicity (Guo, Z S et al Cancer Res 2006 22:1105-1113). […] Nevertheless, decitabine at 2 and 4 mg/kg was toxic with 6/8 (75%) mice dead between 8 and 12 days after only one decitabine dose (without Abraxane® treatment). Decitabine dose at 1.5 mg/kg was subsequently used in the combination experiments."}, "[5]": {"details": "cited from earlier work"}, "[6]": {"test_system": "NSCLC_16372 xenograft", "assay": "Tumor xenograft growth in vivo, SPARC-positive PD NSCLC xenograft", "design": "species or system SCID mice", "details": "Abraxane 30 mg/kg, taxol 13.4 mg/kg (equitoxic)", "protocol": "(§1) Experimental studies were carried out using 6- to 8-week-old CB.17 severe combined immunodeficiency (SCID)/SCID with an average body weight ˜25 g. H460 (5×10^6 cells) or PD NSCLC xenografts (mouse-to-mouse passage), which were cut into small fragments (2-3 mm in size), were implanted subcutaneously at the flank region. Tumor growth was monitored by periodic visual inspection at the site of implantation, and the dimensions of the xenografts were measured every 2 to 3 days. Tumor volume was calculated using the following formula: V=LD×(SD)^2/2, where V is the tumor volume, LD is the longest tumor diameter, and SD is the shortest tumor diameter.\n(§2) To establish a maximally tolerated dose to be used in experiments involving pretreatment with decitabine, groups of mice implanted with H460 cell lines were tested at four dose levels of decitabine, i.e., 0.75, 1.5, 2, and 4 mg/kg, administered intraperitoneally as a single dose and monitored for viability (weight loss and death). […]\n(§3) To describe the observed variability in the in vivo data and test for differences between groups, a multivariate linear model was fit to each dependent variable (tumor volume). […] Difference was considered statistically significant when the calculated p value was less than 0.05."}, "[7]": {"test_system": "NSCLC_15946 xenograft", "assay": "Tumor xenograft growth in vivo, SPARC-intermediate PD NSCLC xenograft", "design": "species or system SCID mice", "details": "Abraxane 30 mg/kg, taxol 13.4 mg/kg (equitoxic)", "protocol": "as §1, §2, §3"}, "[8]": {"test_system": "NSCLC_16465 xenograft", "assay": "Tumor xenograft growth in vivo, SPARC-negative PD NSCLC xenograft", "design": "species or system SCID mice", "details": "taxol 13.4 mg/kg", "protocol": "as §1, §2, §3"}, "[9]": {"test_system": "NSCLC_16591 xenograft", "assay": "Tumor xenograft growth in vivo, SPARC-negative PD NSCLC xenograft", "design": "species or system SCID mice", "details": "Abraxane 30 mg/kg, taxol 13.4 mg/kg (equitoxic)", "protocol": "as §1, §2, §3"}, "[10]": {"details": "decitabine at 2 and 4 mg/kg ip, without Abraxane treatment"}},
  "note": "Read-outs that look alike come from different tables or passages of the source.",
  "data": [
    {"smiles": "Nc1ncn([C@@H]2O[C@H](CO)[C@@H](O)[C@H]2O)c(=O)n1", "note": "[azacitidine, 5-azacytidine]", "values": [
      {"measurement": "maximum tolerated dose (MTD) of azacitidine in this regimen", "setting": "[1]", "result": 75, "unit": "mg/m^2"}
    ]},
    {"smiles": "Nc1ncn([C@H]2C[C@H](O)[C@@H](CO)O2)c(=O)n1", "note": "[decitabine, 5-aza-2′-deoxycytidine]", "values": [
      {"measurement": "SPARC expression in NSCLC cell lines", "setting": "[2]; A549, H460 and H157, decitabine 5 μM", "result": "up-regulated"},
      {"measurement": "SPARC expression", "setting": "[2]; H460 cells, decitabine 5 μM", "result": "up-regulated"},
      {"measurement": "SPARC protein (Western blot)", "setting": "[2]; H460 cells, decitabine 5 μM", "result": "upregulation"},
      {"measurement": "unmethylated promoter of SPARC (methylation-specific PCR)", "setting": "[2]; H460 cells, decitabine 5 μM", "result": "increase"},
      {"measurement": "SPARC expression in xenografts", "setting": "[3]; NSCLC_16325, NSCLC_16384 and H460 xenografts, decitabine 1.5 mg/kg", "result": "up-regulated"},
      {"measurement": "reexpression of SPARC in H460 xenografts", "setting": "[3]; decitabine 0.75, 1.5, 2 and 4 mg/kg ip", "result": "dose-dependent reexpression"},
      {"measurement": "toxicity", "setting": "[4]; decitabine at 2 and 4 mg/kg ip single dose", "result": "toxic"},
      {"measurement": "mice dead between 8 and 12 days after only one decitabine dose", "setting": "[4]; [10]", "result": 75, "unit": "%"},
      {"measurement": "mice dead between 8 and 12 days after only one decitabine dose (number/total)", "setting": "[4]; [10]", "result": "6/8"},
      {"measurement": "toxicity", "setting": "[5]; 2 mg/kg dose twice daily intraperitoneally for 5 days", "result": "mild toxicity"},
      {"measurement": "toxicity", "setting": "[5]; 10 mg/kg/dose twice daily intraperitoneally for 5 days", "result": "toxic"}
    ]},
    {"smiles": "CC(=O)O[C@H]1C(=O)[C@@]2(C)[C@H]([C@H](OC(=O)c3ccccc3)[C@]3(O)C[C@H](OC(=O)[C@H](O)[C@@H](NC(=O)c4ccccc4)c4ccccc4)C(C)=C1C3(C)C)[C@]1(OC(C)=O)CO[C@@H]1C[C@@H]2O", "note": "[taxol]", "values": [
      {"measurement": "xenograft growth compared with vehicle control", "setting": "[6]", "result": "suppressed"},
      {"measurement": "tumor growth compared with vehicle control", "setting": "[7]", "result": "significantly inhibited"},
      {"measurement": "tumor growth compared with vehicle control", "setting": "[8]", "result": "no difference compared with vehicle control"},
      {"measurement": "effect on tumor growth compared with vehicle control", "setting": "[9]", "result": "Neither administration of taxol nor administration of Abraxane® showed any effect on tumor growth"}
    ]}
  ]
}
